Molecular target: T1, human serum albumin (Homo sapiens, UniProt P02768)
T1 construct: gene ALB
Experiment: intrinsic Trp fluorescence quenching (excitation […] nm, […] K), double-log plot; Kb is an association constant
Assay type: binding
Conditions: read-out: Kb/dm^3 mol^-1 (converted)

T1 sequence (P02768 25-609): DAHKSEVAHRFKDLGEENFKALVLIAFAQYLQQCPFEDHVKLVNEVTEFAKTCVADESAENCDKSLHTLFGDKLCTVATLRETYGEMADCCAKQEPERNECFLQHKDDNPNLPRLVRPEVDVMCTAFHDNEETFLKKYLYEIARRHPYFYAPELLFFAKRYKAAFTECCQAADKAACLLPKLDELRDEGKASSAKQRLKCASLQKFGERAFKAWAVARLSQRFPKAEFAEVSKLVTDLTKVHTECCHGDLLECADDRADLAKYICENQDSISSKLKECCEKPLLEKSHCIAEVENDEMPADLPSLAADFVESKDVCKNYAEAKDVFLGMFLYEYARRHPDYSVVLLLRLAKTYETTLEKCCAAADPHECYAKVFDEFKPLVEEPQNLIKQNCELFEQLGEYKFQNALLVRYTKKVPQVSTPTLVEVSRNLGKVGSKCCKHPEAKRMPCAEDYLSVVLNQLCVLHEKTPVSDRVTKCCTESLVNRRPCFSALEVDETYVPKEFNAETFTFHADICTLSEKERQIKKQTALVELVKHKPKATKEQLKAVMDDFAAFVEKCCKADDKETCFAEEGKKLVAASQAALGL

Kd: 225 µM
Compound: O=C(CCCN1CCC(O)(c2ccc(Cl)cc2)CC1)c1ccc(F)cc1 [HPD, haloperidol]

Reference: article PMC12295124, “Quercetin, Catechin, and Diosmin as Modulators of Haloperidol–HSA Interactions: A Biophysical and Computational Study” (International Journal of Molecular Sciences, 2025)
